Experimental data: PubChem BioAssay AID1981 (Southern Research Specialized Biocontainment Screening …, 2009)

tested on: S. Typhimurium PhoP-promoter GFP reporter counterscreen, fluorescence, 4 h; assay: S. Typhimurium GFP fluorescence dose response in modified counterscreen for PhoP regulon inhibitor project (AID 1981)

Row | SMILES | IC50 [µM]
1 | C#CCOCCOCCOCCNc1nc(N2CCN(C(=O)CCCCCCCCCCNC(=O)[C@H](CCCN=C(N)N)n3cc(C[C@@H](C)CC)nn3)CC2)nc(N2CCN(C(=O)CCCCCCCCCCNC(=O)[C@@H]([C@H](C)CC)n3cc(CCCCCN)nn3)CC2)n1 | 41.4
2 | Oc1cccc2ccc(Nc3ccccn3)nc12 | 14.5
3 | Cc1ccc(C)n1-c1cc(S(=O)(=O)N2CCOCC2)ccc1N1CCCC1 | 138
4 | O=C1C(SCCO)=C(SCCO)C(=O)c2ccccc21 | 64.9
5 | Oc1c(C(Nc2cccc(C(F)(F)F)c2)c2cccnc2)ccc2cccnc12 (centres undefined) | 56.2
6 | O=[N+]([O-])c1cc(F)c2cccnc2c1O | 9.5
7 | CN(Cc1ccccc1)CC(O)COc1ccc(CNCc2ccc(Cl)s2)cc1 (centres undefined) | 117
8 | CCOC(=O)Cc1csc(NC(=O)NC2(C(F)(F)F)Oc3cc(Cl)c(Cl)cc3O2)n1 | 67.8
9 | C#CCOCCOCCOCCNc1nc(N2CCN(C(=O)CCCCCCCCCCNC(=O)[C@H]([C@@H](C)CC)n3cc(CCCCN=C(N)N)nn3)CC2)nc(N2CCN(C(=O)CCCCCCCCCCNC(=O)[C@H]([C@@H](C)CC)n3cc(CCCCN=C(N)N)nn3)CC2)n1 | 61.1
10 | Clc1cc(Br)ccc1OCCCNCc1ccccc1 | 83.4
11 | O=C(N/N=C/c1coc2ccc(Cl)cc2c1=O)c1cc(O)cc(O)c1 | 137
12 | CCn1cc(C(=O)O)c(=O)c2cc(F)c(N3CCN(C(=S)NC(=O)c4ccc(F)c(F)c4)CC3)cc21 | 46.6
13 | CCN1/C(=C/C=C/C=C/c2sc3ccccc3[n+]2CC)Sc2ccccc21 | 23.6
14 | CC(=O)NC(c1cccc([N+](=O)[O-])c1)c1ccc2cccnc2c1O (centres undefined) | 72.5
15 | Cc1ccc(Nc2nc(N)c3ccccc3n2)cc1Cl | 74.4
16 | O=C(Nc1nnc(-c2cccs2)o1)c1cccc(Oc2ccccc2)c1 | 54.6
17 | Cc1ccc(Nc2c3c(nc4ccccc24)CCC3)cc1 | 146
18 | O=C1OCC(CO)(CO)N=C1NNc1ccc(Cl)c(Cl)c1 | 53.3
19 | COc1c(N2CCN(C(=S)NC3CC4CCC3C4)C(C)C2)c(F)cc2c(=O)c(C(=O)O)cn(C3CC3)c12 (centres undefined) | 5.38
20 | O=C(N/N=C/c1cccc([N+](=O)[O-])c1O)c1cccs1 | 20.4
21 | C[C@H]1O[C@@H](n2cc(F)c(=O)[nH]c2=O)[C@H](O)[C@@H]1O | 11.8
22 | Oc1cccc(C=NCc2ccccc2)c1O | 109

Row | SMILES | IC50 [µM]
23 | Cc1nc(NC(=O)c2ccccc2)sc1-c1csc(Nc2ccc(F)cc2)n1 | 86.4
24 | CCCCCCCSc1cc(OC)c(CCNC)cc1OC | 71.8
25 | Oc1c(C(Nc2nc3ccccc3s2)c2ccco2)ccc2cccnc12 (centres undefined) | 57
26 | Nc1nc(F)nc2c1ncn2[C@@H]1O[C@H](CO)[C@@H](O)[C@H]1O | 18.3
27 | Clc1ccc(OCCCNCc2ccccc2)c(Br)c1 | 71.8
28 | CCOc1ccc(NC(=O)c2ccc(NC(=O)c3cn4c5c(c(N6CCN(C)CC6)c(F)cc5c3=O)OCC4C)cc2)cc1 (centres undefined) | 4.1
29 | Cc1cc(C(=O)N/N=C/c2ccc(O)c(O)c2O)c(C)n1-c1ccccc1 | 30
30 | Cc1ccc(Nc2cc(C)nn2-c2nc(C)cc(=O)[nH]2)cc1 | 12.4
31 | Oc1ccc(/C=N/Nc2ncc(Br)cn2)c(O)c1 | 128
32 | O=C(N/N=C/c1cc2c3c(c1O)CCCN3CCC2)c1ccccc1O | 135
33 | c1ccc(-c2nnc(-c3ccccn3)nc2NC2CCCCC2)cc1 | 148
34 | Cc1nc(N)nc(N)c1/C=C/C(C)(C)c1ccc(Cl)cc1 | 12.9
35 | C[CH2][Hg][S]c1ccccc1C(=O)O | 28.1
36 | Nc1ncncc1-c1ccc([N+](=O)[O-])cc1 | 136
37 | CS(=O)(=O)c1ccc([C@@H](O)[C@@H](CF)NC(=O)C(Cl)Cl)cc1 | 7.98
38 | Cc1cccc(Nc2nc(NCc3ccco3)c3ccccc3n2)c1 | 37.9
39 | CCCCCCCCCCCCCCCC[N+](C)(C)C | 37.9
40 | NC1=NC[C@H](Cc2ccc(O)cc2)N1CCCCC1CCCCC1 | 84.1
41 | Nc1ncn([C@@H]2O[C@H](CO)[C@@H](O)[C@H]2O)c(=O)n1 | 19.4
42 | OCCNCc1c(OCc2ccc(Cl)cc2)ccc2ccccc12 | 105
43 | O=[N+]([O-])c1cc(/C=N/Nc2nc3ccccc3[nH]2)c(O)cc1O | 32.5
44 | O=C(N/N=C/c1cc([N+](=O)[O-])ccc1O)c1ccncc1 | 101

Row | SMILES | IC50 [µM]
45 | CCOC(=O)C1=Nc2ccccc2C1=[N+]=[N-] | 50
46 | ON=C1/C(=N\O)CC2(C/C1=N/O)OCCO2 | 125
47 | O=[N+]([O-])c1cc(CN2CCCC2)c2cccnc2c1O | 57.1
48 | CCCC(=O)NC(c1ccc(N(C)C)cc1)c1ccc2cccnc2c1O (centres undefined) | 49.4
49 | CCCCCCCCNC(C)C(O)c1ccc(SC(C)C)cc1 (centres undefined) | 121
50 | COc1c(N2CCN(C(=S)Nc3ccc(F)cc3)C(C)C2)c(F)cc2c(=O)c(C(=O)O)cn(C3CC3)c12 (centres undefined) | 2.68
51 | CCN1/C(=C/C=C/c2sc3ccccc3[n+]2CC)Sc2ccccc21 | 37.2
52 | O=C1C=C(O)c2c(O)cc(O)c(O)c2C1=O | 69.4
53 | CC(Cc1ccccc1)NCc1ccccc1O (centres undefined) | 63.8
54 | O=C(Nc1cccc(N=Cc2cc(Br)cc(Br)c2O)c1)c1ccco1 | 119
55 | CCC(C)(C)c1ccc(OCCCC[n+]2ccccc2)c(C(C)(C)CC)c1 | 63.4
56 | Nc1nonc1-n1nnc(C(=O)N/N=C/c2cc(Br)ccc2O)c1CSC1=NCCS1 | 145
57 | CCn1cc(C(=O)O)c(=O)c2ccc(C)nc21 | 117
58 | COc1c(N2CCN(C(=S)NCc3ccccc3)C(C)C2)c(F)cc2c(=O)c(C(=O)O)cn(C3CC3)c12 (centres undefined) | 31.9
59 | CC[C@H]1OC(=O)[C@H](C)[C@@H](O[C@H]2C[C@@](C)(OC)[C@@H](O)[C@H](C)O2)[C@H](C)[C@@H](O[C@@H]2O[C@H](C)C[C@H](N(C)C)[C@H]2O)[C@](C)(O)C[C@@H](C)[C@@H]2N[C@@H](COCCOC)O[C@H]([C@H]2C)[C@]1(C)O | 22.6
60 | COc1ccc(Nc2cc(C)c3c(O)cccc3n2)cc1 | 70
61 | Nc1[nH]c(=O)ncc1F | 10.6
62 | CCOc1ccc(Nc2c3ccccc3nc3ccccc23)cc1 | 94
63 | O=C(N/N=C/c1ccc([N+](=O)[O-])s1)C(O)c1ccccc1 (centres undefined) | 68.4
64 | O=S(=O)(Nc1cc(Sc2cccc3cccnc23)c(O)c2ccccc12)c1ccc(F)cc1 | 57.2
65 | O=S1(=O)Nc2c(ccc3cccnc23)-c2ccccc21 | 3.01
66 | CC[C@@H](C)[C@H](CNC)NC[C@@H](Cc1cccc2ccccc12)NCCc1cccc(C(F)(F)F)c1 | 39.9

Row | SMILES | IC50 [µM]
67 | O=S1(=O)N=C(N/N=C/c2ccccn2)c2ccccc21 | 29.1
68 | OC(c1cc(C(F)(F)F)nc2c(Cl)cc(Cl)cc12)C1CCCCN1 (centres undefined) | 133
69 | O=Cc1ccc(O)c2ncccc12 | 6.78
70 | CC1CCC(C(C)C)C(OC(=O)Cn2c(COc3ccccc3)[n+](C)c3ccccc32)C1 (centres undefined) | 85.5
71 | CCCCCCOC(=O)C[N+](C)(C)CCOC1CC2CCC1(C)C2(C)C (centres undefined) | 71.2
72 | CC(C)(C)/C(O)=C/c1nc2cc(Cl)ccc2oc1=O | 55
73 | NC1=NC[C@@H](Cc2ccc(O)cc2)N1CCCCC1CCCCC1 | 40.2
74 | C(=N\Nc1ccccn1)/c1cccnc1 | 62.2
75 | CC(=O)Oc1ccc(C(=O)[C@H]2[C@H]3C(=O)N(c4ccc5ccccc5c4)C(=O)[C@H]3[C@@H]3C=CC=NN32)cc1 | 138
76 | CCN1CCN(C(c2cccnc2)c2cc(Cl)c3cccnc3c2O)CC1 (centres undefined) | 61.9
77 | Oc1c(CN2CCCCC2)cc(COCc2ccccc2)c2cccnc12 | 85.6
78 | Cc1ccc(-c2csc(NC(=O)C[n+]3cc(-c4ccc(C)cc4)n4c3CCC4)n2)cc1 | 45.2
79 | CN1CCN(C(c2ccc(Br)cc2)c2cc(Cl)c3cccnc3c2O)CC1 (centres undefined) | 24
80 | NCC12CC3CC(C1)CC(c1ccc(Br)cc1)(C3)C2 | 55.2
81 | C/C(=N\N=C(N)N)c1ccc(Cl)c(Cl)c1 | 92.6
82 | CCCCCc1ccc(OCCOCCn2c[n+](C)c3ccccc32)c(CCCCC)c1 | 55
83 | NC(N)=N/N=C/c1ccc(OCc2ccc(Cl)cc2)cc1 | 56.5
84 | OC(c1cc(-c2ccc(C(F)(F)F)cc2)nc(C(F)(F)F)c1)C1CCCCN1 (centres undefined) | 42.2
85 | C=CC1=C(C(=O)O)N2C(=O)[C@@H](NC(=O)/C(=N/OCC(=O)O)c3csc(N)n3)[C@H]2SC1 | 17.9
86 | CC(C)CCNCC(O)CON=C1c2ccccc2-c2ccccc21 (centres undefined) | 136
87 | CC(C)Oc1ccc(Cc2cnc(N)nc2N)cc1 | 54.2
88 | Oc1c(CN2CCc3ccccc3C2)cc(Cl)c2cccnc12 | 7.36

Row | SMILES | IC50 [µM]
89 | Cc1cccc(Nc2cc(C)c3c(O)cccc3n2)c1C | 82.7
90 | CCc1ccc(NC(=O)C[n+]2cc(-c3ccc(C)cc3)n3c2CCC3)cc1 | 146
91 | COc1cc(C(=O)Oc2c(CN3CCOCC3)cc(Cl)c3cccnc23)cc(OC)c1OC | 113
92 | O=C(N/N=C/c1cccs1)c1cccs1 | 81.4
93 | COc1cc(C)c(Cc2cnc(N)nc2N)cc1OC | 3.05
94 | COc1ccc(CNC[C@@H](CCCCN(C)Cc2ccc(OC)cc2)N2C[C@H](c3ccccc3)N(CCc3ccc(Cl)c(Cl)c3)C(=O)C2=O)cc1 | 108
95 | CC[n+]1c(/C=C/N(C)c2ccccc2)n(-c2ccccc2)c2ccc(-c3nc4ccccc4s3)cc21 | 21.8
96 | O=C1C(=O)c2ccccc2-c2ccccc21 | 87.3
97 | CC(C(=O)c1ccc(-c2ccccc2)cc1)[n+]1cccc(NC(=O)c2ccccc2)c1 (centres undefined) | 106
98 | CCn1cc(C(=O)O)c(=O)c2cc(F)c(N3CCN(C(=O)Nc4ccccc4)CC3)cc21 | 27.7
99 | CN1CCN(CCCN2c3ccccc3Sc3ccc(Cl)cc32)CC1 | 148
100 | O=S1(=O)CCC(NC(=S)SCCOc2ccccc2)C1 (centres undefined) | 86.5
101 | O=C(Cn1nc(CNc2ccc(Cl)cc2)[n+]2c1CCCCC2)c1ccc(Br)cc1 | 88.2
102 | CCCCN(CCCC)C(=O)c1cn(CC)c2cc(N3CCN(C)CC3)c(F)cc2c1=O | 14.2
103 | CC[n+]1c(/C=C/C=C/c2ccc(N(C)C)cc2)sc2ccccc21 | 74
104 | Oc1cccc(/C=N/NC(=S)Nc2cccnc2)c1O | 28.7
105 | Nc1cc2nsnc2cc1Br | 30.1
106 | O=C(N/N=C/c1cc(O)ccc1Br)c1cccnc1 | 43.5
107 | Cc1cc(C)c(NC(=O)c2cn3c4c(c(N5CCN(C)CC5)c(F)cc4c2=O)OCC3C)c(C)c1 (centres undefined) | 35.1
108 | CN1CCN(c2cc3c(cc2F)c(=O)c(C(=O)O)cn3CCF)CC1 | 0.51
109 | CCN(CC)c1ccc(/C=N/Nc2nc3ccccc3[nH]2)c(O)c1 | 39.9
